Assay: Estimate of skin flux required to deliver therapeutically effective amounts of alprazolam transdermally
Conditions: practical skin area (less than about 100 cm^2); estimated from published pharmacokinetic data
Experimental: Based on the published pharmacokinetic data on alprazolam, applicants estimated that skin flux in the range of at least about 1 μg/cm^2 /hr would be required to deliver therapeutically effective amounts of alprazolam transdermally through a practical skin area (i.e., less than about 100 cm^2). However, when applicants measured the in vitro flux of alprazolam through skin from a propylene glycol solution, they found the flux was several-fold less than the flux required to deliver a therapeutic amount of the drug through such an area of skin. […]

SMILES: Cc1nnc2n1-c1ccc(Cl)cc1C(c1ccccc1)=NC2 [Alprazolam, 8-chloro-1-methyl-6-phenyl-4H-1,2,4-triazolo(4,3-a)(1,4)benzodiazepine]
- skin flux required to deliver therapeutically effective amounts transdermally: at least 1 μg/cm^2 /hr
